# Assay results as given in US20020035061A1, “COMPOSITIONS AND METHODS FOR TREATING INFECTIONS USING CATIONIC PEPTIDES ALONE OR IN COMBINATION WITH ANTIBIOTICS” (priority 1996, published 2002).
# Where two headings read alike, the source gives them in different places.
# Assays:
# Assay type in all cases: cell-based
# A. calcoaceticus = system: A. calcoaceticus
# E. cloacae = system: E. cloacae
# E. coli = system: E. coli
# E. faecalis = system: E. faecalis
# K. pneumoniae = system: K. pneumoniae
# P. aeruginosa = system: P. aeruginosa
# S. aureus = system: S. aureus
# S. epidermidis = system: S. epidermidis
# S. maltophilia = system: S. maltophilia
# S. marcescens = system: S. marcescens
Sequence,MIC (E. cloacae; E. cloacae strain ECL007) [µg/mL],MIC (S. epidermidis; S. epidermidis strain SE010) [µg/mL],MIC (S. marcescens; S. marcescens strain SMS003) [µg/mL],MIC (A. calcoaceticus; A. calcoaceticus AC002) [µg/mL],MIC (E. cloacae; E. cloacae ECL007) [µg/mL],MIC (E. coli; E. coli ECO005) [µg/mL],MIC (E. faecalis; E. faecalis EFS001) [µg/mL],MIC (K. pneumoniae; K. pneumoniae KP001) [µg/mL],MIC (P. aeruginosa; P. aeruginosa PA004) [µg/mL],MIC (S. aureus; S. aureus SA093) [µg/mL],MIC (S. epidermidis; S. epidermidis SE010) [µg/mL],MIC (S. maltophilia; S. maltophilia SMA002) [µg/mL],MIC (S. marcescens; S. marcescens SMS003) [µg/mL],MIC (E. faecalis; E. faecalis EFS008) [µg/mL],MIC (S. aureus; S. aureus SA014) [µg/mL],also measured
ILRRNPNNPNRRK [MBI 11B1CNW1],64,8,>128,–,–,–,–,–,–,–,–,–,–,–,–,MIC (A. calcoaceticus; A. calcoaceticus strain AC002): 16 µg/mL; MIC (E. coli; E. coli strain ECO005): 32 µg/mL; MIC (E. faecalis; E. faecalis strain EFS004): 8 µg/mL; MIC (K. pneumoniae; K. pneumoniae strain KP001): 32 µg/mL; MIC (P. aeruginosa; P. aeruginosa strain PA004): 64 µg/mL; MIC (S. aureus; S. aureus strain SA014): 16 µg/mL; MIC (S. maltophilia; S. maltophilia strain SMA002): 32 µg/mL
ILRWPWWPWRRKDMILKKAGS [MBI 11B18CN],>128,4,>128,–,–,–,–,–,–,–,–,–,–,–,–,MIC (A. calcoaceticus; A. calcoaceticus strain AC002): 2 µg/mL; MIC (E. coli; E. coli strain ECO005): 32 µg/mL; MIC (E. faecalis; E. faecalis strain EFS008): 4 µg/mL; MIC (K. pneumoniae; K. pneumoniae strain KP001): 32 µg/mL; MIC (P. aeruginosa; P. aeruginosa strain PA004): >128 µg/mL; MIC (S. aureus; S. aureus strain SA093): 2 µg/mL; MIC (S. maltophilia; S. maltophilia strain SMA002): 64 µg/mL
KRRWPWWPWKKLI [MBI 11CNR],–,–,–,4,>128,8,4,4,32,4,4,32,128,–,–,–
ILRNPNNPNRRK [MBI 11B7ACN],>128,4,>128,–,–,–,–,–,–,–,–,–,–,–,–,"MIC (A. calcoaceticus; A. calcoaceticus strain AC002, listed as MBI 11B7 ACN): 2 µg/mL; MIC (E. coli; E. coli strain ECO005, listed as MBI 11B7 ACN): 8 µg/mL; MIC (E. faecalis; E. faecalis strain EFS001, listed as MBI 11B7 ACN): 1 µg/mL; MIC (E. faecalis; E. faecalis strain EFS008): 8 µg/mL; MIC (K. pneumoniae; K. pneumoniae strain KP001, listed as MBI 11B7 ACN): 8 µg/mL; MIC (P. aeruginosa; P. aeruginosa strain PA004, listed as MBI 11B7 ACN): 128 µg/mL; MIC (S. aureus; S. aureus strain SA014): 2 µg/mL; MIC (S. aureus; S. aureus strain SA093): 1 µg/mL; MIC (S. maltophilia; S. maltophilia strain SMA002, listed as MBI 11B7 ACN): 32 µg/mL"
ILRWPWWPARRK [MBI 11H09CN],–,–,–,4,>128,32,4,64,>128,2,16,64,>128,64,8,–
ILRRWVWWVWRRK [MBI 11F5CN],–,–,–,4,128,8,2,8,32,2,4,16,>128,8,4,–
ILRWPWRRWPWRRK [MBI 11B19CN],–,–,–,4,>128,8,2,64,128,2,4,32,>128,32,4,–
LRWWWPWRRK [MBI 11G25CN],–,–,–,2,>128,8,2,16,64,1,2,32,>128,16,2,–
ILKKWPWWPWRRK [MBI 11ACN],–,–,–,2,>128,16,–,16,>128,–,4,64,>128,64,8,MIC (E. faecalis; E. faecalis EFS004): 8 µg/mL
